Data set [1] concerns W(Ghr, ΔB) clones. Briefly: resistance of yeast clones to ketoconazole. Particulars: three W(Ghr, ΔB) clones, human reductase under GAPDH promoter. In kind it is cell-based, S. cerevisiae. As to the method: The second selection: the resistance of the W(Ghr, ΔB) clones to ketoconazole was evaluated (Patent No. WO94/01564) in order to verify the activity of the human reductase expressed under the control of the GAPDH promoter. Three different clones are resistant to 20 mg of ketoconazole/ml, while the W(hR) strain, in which the human reductase is expressed under the control of the GAL10-CYC1 promoter, is only resistant to from 1 to 5 mg/ml under the same conditions.

In data set [2] the target is T1, P450 cytochrome 1A1 (Homo sapiens, UniProt P04798).
T1 construct: made in house; host or cells: Saccharomyces cerevisiae W303-derived strains, e.g. W(R, LHb5); microsomal fractions
T1 sequence (P04798 1-512): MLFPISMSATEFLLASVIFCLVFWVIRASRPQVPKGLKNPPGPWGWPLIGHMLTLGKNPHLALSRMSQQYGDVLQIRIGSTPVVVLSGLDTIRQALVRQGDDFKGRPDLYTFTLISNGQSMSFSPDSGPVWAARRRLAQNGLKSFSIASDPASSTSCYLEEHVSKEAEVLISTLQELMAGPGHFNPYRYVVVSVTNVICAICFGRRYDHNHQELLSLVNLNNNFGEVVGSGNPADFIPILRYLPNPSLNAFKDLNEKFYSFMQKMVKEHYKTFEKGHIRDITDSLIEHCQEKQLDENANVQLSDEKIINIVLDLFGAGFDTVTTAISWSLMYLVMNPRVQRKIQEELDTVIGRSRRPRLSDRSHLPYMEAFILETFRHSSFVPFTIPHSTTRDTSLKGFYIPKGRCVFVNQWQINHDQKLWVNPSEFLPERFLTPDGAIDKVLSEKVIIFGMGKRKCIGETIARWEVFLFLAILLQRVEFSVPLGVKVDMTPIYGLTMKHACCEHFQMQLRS
The experiment in a line: EROD activity test on microsomes (O-deethylation of 7-ethoxyresorufin). In kind it is biochemical. To be noted: microsomes of strain W(R, LHb5), rabbit cytochrome b5 added. As to the method:
The P450 cytochrome 1A1 catalyses the O-deethylation of 7-ethoxyresorufin. The product of the reaction, i.e. resorufin (7-hydroxyphenoxazine), fluoresces at 586 nm after excitation at 530 nm. The quantity of resorufin formed per unit time corresponds to the rate of resorufin accumulation.
The incubation mixture comprises:
2 μl of a microsomal suspension (between 20 and 50 μg of microsomal protein) in 1 ml of pH 7.4 TE buffer containing 50 μM NADPH and 2.5 μM 7-ethoxyresorufin. In order to determin the effect of rabbit cytochrome b5 on catalytic efficacy, the microsomal fractions are subjected to prior incubation in the cold in the presence of an excess of purified cytochrome.

The record followed here is patent publication US6579693B1, “Genetically engineered yeast strains” (Aventis Pharma S.A., priority 1995, dated 2003).

Turning to `CC(=O)N1CCN(c2ccc(OCC3COC(Cn4ccnc4)(c4ccc(Cl)cc4Cl)O3)cc2)CC1` (centres unmarked) [ketoconazole], the “ketoconazole concentration to which the clones are resistant” value in data set [1] is 20 mg/mL.

B1: rabbit cytochrome b5: purified rabbit cytochrome b5 added in excess to microsomal fractions (protein, UniProt P00169 2-134, looked up)
Cytochrome b5: AAQSDKDVKYYTLEEIKKHNHSKSTWLILHHKVYDLTKFLEEHPGGEEVLREQAGGDATENFEDVGHSTDARELSKTFIIGELHPDDRSKLSKPMETLITTVDSNSSWWTNWVIPAISALIVALMYRLYMADD
B1: the turnover in data set [2] is 27 pmol of metabolite/pmol of cytochrome P450 per min.
